Laboratory results reported in PMC7026418, “The kinase polypharmacology landscape of clinical PARP inhibitors” (Scientific Reports, 2020).
Like-named read-outs stand apart in the source and are kept apart here.

Columns and labels:
Experiment in all cases: biochemical
Set-up in all cases: DiscoveRx KINOMEscan active site-directed competition binding; percent of control kinase bound to immobilised ligand
CSNK2A2 = CSNK2A2 (Homo sapiens, UniProt P19784)
ACVR2B = ACVR2B (Homo sapiens, UniProt Q13705)
Chain of ACVR2B (Q13705 whole entry): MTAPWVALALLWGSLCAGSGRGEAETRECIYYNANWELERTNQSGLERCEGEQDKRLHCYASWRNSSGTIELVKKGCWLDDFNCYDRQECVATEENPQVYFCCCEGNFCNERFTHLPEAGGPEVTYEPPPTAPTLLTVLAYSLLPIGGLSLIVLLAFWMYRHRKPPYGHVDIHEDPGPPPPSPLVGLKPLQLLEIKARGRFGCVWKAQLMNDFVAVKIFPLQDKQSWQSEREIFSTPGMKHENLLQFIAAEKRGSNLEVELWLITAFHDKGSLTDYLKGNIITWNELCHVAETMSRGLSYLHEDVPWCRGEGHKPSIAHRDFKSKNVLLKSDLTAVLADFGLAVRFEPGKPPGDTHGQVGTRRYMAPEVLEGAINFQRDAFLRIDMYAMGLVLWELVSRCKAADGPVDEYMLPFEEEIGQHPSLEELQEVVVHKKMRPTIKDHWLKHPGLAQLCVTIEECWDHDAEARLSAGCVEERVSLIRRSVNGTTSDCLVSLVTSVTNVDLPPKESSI

CDK4 = CDK4 (Homo sapiens, UniProt P11802)
KIT-autoinhibited = KIT-autoinhibited (Homo sapiens, UniProt P10721)
Chain of KIT-autoinhibited (P10721 whole entry): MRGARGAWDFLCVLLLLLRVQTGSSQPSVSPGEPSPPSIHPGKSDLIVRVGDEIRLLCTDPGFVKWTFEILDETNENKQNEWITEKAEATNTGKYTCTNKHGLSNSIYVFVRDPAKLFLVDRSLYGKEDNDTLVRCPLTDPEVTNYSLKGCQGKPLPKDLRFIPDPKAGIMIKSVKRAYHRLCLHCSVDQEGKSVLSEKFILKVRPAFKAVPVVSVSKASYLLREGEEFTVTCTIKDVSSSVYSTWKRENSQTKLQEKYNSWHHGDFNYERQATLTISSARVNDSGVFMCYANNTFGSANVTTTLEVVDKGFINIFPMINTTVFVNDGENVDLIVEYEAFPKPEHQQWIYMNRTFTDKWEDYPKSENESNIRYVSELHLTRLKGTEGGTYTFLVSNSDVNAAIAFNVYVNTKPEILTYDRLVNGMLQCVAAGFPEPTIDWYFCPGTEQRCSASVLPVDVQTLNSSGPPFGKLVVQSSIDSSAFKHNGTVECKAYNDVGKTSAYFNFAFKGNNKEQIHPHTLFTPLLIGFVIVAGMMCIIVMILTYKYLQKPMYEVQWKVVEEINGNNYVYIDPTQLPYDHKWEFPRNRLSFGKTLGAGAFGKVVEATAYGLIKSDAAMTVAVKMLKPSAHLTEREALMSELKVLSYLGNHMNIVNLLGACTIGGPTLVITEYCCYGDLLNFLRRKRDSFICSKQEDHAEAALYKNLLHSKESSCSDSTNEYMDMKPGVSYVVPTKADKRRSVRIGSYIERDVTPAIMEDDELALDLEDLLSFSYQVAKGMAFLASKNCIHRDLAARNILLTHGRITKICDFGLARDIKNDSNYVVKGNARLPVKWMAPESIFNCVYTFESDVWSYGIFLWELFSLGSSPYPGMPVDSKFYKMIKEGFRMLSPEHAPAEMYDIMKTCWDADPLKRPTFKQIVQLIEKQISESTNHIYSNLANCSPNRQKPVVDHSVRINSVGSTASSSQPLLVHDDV

MRCKA = molecular target: T1, MRCKA (Homo sapiens, UniProt Q5VT25)
T1 construct: gene CDC42BPA
T1 sequence (Q5VT25 whole entry): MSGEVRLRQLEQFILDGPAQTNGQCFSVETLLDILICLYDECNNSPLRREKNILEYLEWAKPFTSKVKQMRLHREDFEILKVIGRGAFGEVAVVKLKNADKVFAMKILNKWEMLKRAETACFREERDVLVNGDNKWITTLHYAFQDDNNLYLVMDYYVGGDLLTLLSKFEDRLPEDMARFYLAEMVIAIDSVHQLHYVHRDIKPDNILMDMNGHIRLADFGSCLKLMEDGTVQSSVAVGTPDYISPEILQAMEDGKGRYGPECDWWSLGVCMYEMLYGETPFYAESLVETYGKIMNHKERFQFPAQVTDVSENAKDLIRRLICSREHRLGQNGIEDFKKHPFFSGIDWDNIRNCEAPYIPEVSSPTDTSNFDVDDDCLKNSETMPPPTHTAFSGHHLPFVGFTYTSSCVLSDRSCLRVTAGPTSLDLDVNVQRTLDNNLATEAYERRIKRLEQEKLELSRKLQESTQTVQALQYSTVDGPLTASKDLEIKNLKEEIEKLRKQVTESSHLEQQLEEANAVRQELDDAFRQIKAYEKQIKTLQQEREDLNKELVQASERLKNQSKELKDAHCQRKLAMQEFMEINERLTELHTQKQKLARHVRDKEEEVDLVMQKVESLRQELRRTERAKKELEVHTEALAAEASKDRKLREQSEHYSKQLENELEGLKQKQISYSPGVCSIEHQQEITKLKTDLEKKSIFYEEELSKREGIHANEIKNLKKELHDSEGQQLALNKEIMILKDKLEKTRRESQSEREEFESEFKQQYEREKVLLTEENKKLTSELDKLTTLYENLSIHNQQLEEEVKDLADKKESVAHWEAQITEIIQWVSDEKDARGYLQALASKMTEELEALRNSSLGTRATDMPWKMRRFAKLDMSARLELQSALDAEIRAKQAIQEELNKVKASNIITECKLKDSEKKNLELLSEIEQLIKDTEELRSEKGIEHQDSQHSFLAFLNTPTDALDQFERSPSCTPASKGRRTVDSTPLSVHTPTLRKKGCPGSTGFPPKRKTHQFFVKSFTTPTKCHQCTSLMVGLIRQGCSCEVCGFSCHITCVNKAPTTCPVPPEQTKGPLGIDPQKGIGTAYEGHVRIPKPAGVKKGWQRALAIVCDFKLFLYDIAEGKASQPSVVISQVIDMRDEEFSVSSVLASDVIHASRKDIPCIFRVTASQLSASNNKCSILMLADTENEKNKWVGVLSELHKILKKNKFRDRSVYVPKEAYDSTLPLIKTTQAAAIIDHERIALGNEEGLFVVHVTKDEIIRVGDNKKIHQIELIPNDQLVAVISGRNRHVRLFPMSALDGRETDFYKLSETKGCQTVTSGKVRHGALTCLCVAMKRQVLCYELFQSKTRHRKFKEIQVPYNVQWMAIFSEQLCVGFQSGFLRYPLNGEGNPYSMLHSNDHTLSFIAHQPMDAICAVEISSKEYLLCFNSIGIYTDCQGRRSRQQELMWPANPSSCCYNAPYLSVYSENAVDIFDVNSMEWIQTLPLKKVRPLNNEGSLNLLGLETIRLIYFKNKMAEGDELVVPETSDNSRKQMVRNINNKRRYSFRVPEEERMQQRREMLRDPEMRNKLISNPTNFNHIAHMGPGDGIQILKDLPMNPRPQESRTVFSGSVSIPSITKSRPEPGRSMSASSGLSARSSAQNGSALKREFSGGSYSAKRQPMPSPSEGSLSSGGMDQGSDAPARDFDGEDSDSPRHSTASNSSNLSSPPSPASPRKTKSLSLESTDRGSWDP

[1] = molecular target: T2, RSK4(Kin.Dom.1-N-terminal) (Homo sapiens, UniProt Q9UK32)
T2 construct: gene RPS6KA6; Kin.Dom.1-N-terminal
T2 sequence (Q9UK32 whole entry): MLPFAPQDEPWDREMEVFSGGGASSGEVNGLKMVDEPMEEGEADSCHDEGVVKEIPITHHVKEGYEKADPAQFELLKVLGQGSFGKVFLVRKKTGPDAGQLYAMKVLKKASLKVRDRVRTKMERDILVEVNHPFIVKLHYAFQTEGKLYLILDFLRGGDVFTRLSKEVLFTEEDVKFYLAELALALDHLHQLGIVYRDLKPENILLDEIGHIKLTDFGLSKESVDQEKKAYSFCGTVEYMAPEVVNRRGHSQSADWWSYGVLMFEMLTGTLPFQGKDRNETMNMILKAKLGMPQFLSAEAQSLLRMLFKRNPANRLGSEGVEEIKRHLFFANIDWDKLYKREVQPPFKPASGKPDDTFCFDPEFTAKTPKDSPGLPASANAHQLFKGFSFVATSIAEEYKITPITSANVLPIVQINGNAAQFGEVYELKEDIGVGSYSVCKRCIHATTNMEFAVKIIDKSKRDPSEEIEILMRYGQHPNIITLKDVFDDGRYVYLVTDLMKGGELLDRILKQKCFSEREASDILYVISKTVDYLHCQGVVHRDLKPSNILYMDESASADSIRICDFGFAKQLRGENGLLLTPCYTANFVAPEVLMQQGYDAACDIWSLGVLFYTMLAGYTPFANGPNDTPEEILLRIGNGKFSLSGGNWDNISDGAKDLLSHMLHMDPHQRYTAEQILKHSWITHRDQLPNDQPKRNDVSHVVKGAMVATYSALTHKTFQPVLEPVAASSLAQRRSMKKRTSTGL

MAP3K3 = molecular target: T3, MAP3K3 (Homo sapiens, UniProt Q99759)
T3 sequence (Q99759 1-626): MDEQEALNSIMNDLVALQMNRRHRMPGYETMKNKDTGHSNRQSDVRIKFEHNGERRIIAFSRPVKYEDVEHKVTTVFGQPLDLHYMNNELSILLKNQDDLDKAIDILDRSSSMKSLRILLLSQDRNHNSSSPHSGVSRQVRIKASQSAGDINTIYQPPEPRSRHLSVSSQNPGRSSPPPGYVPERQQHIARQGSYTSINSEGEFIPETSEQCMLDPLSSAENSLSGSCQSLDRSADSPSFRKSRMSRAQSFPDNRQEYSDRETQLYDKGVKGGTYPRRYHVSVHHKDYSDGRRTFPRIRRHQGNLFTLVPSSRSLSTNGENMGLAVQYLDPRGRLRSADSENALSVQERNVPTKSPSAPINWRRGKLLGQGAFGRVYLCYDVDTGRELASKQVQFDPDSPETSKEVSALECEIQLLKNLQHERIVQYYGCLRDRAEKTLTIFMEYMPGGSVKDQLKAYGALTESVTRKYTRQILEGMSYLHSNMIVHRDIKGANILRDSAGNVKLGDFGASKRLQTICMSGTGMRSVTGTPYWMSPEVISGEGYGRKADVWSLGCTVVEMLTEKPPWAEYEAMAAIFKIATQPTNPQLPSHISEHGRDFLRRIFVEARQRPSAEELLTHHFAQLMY

PLK1 = PLK1 (Homo sapiens, UniProt P53350)
GRK3 = molecular target: T4, GRK3 (Homo sapiens, UniProt P35626)
T4 sequence (P35626 1-688): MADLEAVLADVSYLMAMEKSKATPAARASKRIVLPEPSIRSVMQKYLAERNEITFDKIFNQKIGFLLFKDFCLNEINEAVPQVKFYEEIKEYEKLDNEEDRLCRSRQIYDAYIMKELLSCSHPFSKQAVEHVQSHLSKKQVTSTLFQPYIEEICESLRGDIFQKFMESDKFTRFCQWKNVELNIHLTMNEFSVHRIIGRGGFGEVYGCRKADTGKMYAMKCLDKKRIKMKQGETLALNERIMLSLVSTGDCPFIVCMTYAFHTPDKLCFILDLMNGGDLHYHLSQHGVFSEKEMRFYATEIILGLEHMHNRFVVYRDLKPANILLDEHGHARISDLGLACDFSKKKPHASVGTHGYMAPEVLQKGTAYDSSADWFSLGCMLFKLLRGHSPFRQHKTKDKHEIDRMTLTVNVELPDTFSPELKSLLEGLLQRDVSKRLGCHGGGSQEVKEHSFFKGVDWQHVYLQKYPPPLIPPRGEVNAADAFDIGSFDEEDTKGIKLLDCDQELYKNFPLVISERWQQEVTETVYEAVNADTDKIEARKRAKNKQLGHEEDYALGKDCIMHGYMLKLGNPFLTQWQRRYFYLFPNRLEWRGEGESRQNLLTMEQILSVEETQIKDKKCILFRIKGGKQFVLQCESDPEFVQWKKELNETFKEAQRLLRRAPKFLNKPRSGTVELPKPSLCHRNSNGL

PRKX = molecular target: T5, PRKX (Homo sapiens, UniProt P51817)
T5 sequence (P51817 1-358): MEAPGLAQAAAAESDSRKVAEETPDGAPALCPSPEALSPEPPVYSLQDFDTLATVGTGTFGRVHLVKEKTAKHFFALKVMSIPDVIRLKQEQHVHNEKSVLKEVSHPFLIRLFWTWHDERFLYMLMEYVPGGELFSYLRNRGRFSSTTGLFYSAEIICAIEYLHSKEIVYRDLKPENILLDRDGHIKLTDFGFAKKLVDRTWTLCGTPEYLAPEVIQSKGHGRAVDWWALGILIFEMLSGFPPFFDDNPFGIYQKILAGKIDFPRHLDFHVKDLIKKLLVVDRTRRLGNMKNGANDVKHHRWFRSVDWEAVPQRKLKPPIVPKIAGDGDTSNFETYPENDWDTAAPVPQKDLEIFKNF

RIPK2 = RIPK2 (Homo sapiens, UniProt O43353)
Chain of RIPK2 (O43353 whole entry): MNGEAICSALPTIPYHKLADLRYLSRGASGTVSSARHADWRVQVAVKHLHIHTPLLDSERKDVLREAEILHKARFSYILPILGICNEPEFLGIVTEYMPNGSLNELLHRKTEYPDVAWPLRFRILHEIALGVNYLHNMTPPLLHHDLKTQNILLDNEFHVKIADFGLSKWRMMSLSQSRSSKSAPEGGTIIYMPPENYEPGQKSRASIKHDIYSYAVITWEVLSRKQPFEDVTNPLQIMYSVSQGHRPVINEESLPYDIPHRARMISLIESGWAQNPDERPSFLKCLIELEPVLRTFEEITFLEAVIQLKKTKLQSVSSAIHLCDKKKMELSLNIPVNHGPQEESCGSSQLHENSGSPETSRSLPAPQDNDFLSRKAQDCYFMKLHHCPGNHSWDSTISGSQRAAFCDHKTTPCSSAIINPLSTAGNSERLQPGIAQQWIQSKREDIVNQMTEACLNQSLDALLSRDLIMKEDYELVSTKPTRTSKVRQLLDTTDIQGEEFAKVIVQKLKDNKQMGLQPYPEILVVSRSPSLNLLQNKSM

[2] = read-out: Talazoparib (BMN 673) / %Ctrl @ 10000nM
[3] = read-out: Olaparib / %Ctrl @ 10000nM
[4] = read-out: Niraparib (MK-4827) / %Ctrl @ 10000nM
[5] = read-out: Rucaparib / %Ctrl @ 10000nM, binding competition, % of control

Chain of CSNK2A2 (P19784 whole entry): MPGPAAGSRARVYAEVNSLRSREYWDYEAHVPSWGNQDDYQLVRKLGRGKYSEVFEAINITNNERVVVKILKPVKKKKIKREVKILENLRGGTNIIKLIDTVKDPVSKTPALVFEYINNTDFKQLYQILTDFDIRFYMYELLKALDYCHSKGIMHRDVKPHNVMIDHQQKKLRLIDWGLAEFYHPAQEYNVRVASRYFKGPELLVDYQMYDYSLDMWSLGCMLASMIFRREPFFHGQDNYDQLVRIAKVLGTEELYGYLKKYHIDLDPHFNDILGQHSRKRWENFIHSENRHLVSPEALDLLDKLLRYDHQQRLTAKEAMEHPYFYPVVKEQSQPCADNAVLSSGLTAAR

Cn1ncnc1[C@H]1c2n[nH]c(=O)c3cc(F)cc(c23)N[C@@H]1c1ccc(F)cc1 [Talazoparib]
percent of control binding at 10 µM (CSNK2A2; [2]): 77%
percent of control binding at 10 µM (ACVR2B; [2]): 100%
percent of control binding at 10 µM (CDK4; [2]): 100%
percent of control binding at 10 µM (KIT-autoinhibited; [2]): 100%
percent of control binding at 10 µM (MRCKA; [2]): 100%
percent of control binding at 10 µM [1, 2]: 99%
percent of control binding at 10 µM (MAP3K3; [2]): 94%
percent of control binding at 10 µM (PLK1; [2]): 89%
percent of control binding at 10 µM (GRK3; [2]): 81%
percent of control binding at 10 µM (PRKX; [2]): 94%
percent of control binding at 10 µM (RIPK2; [2]): 100%

O=C(c1cc(Cc2n[nH]c(=O)c3ccccc23)ccc1F)N1CCN(C(=O)C2CC2)CC1 [Olaparib]
percent of control binding at 10 µM (CSNK2A2; [3]): 83%
percent of control binding at 10 µM (ACVR2B; [3]): 100%
percent of control binding at 10 µM (CDK4; [3]): 85%
percent of control binding at 10 µM (KIT-autoinhibited; [3]): 93%
percent of control binding at 10 µM (MRCKA; [3]): 98%
percent of control binding at 10 µM [1, 3]: 76%
percent of control binding at 10 µM (MAP3K3; [3]): 88%
percent of control binding at 10 µM (PLK1; [3]): 85%
percent of control binding at 10 µM (GRK3; [3]): 82%
percent of control binding at 10 µM (PRKX; [3]): 88%
percent of control binding at 10 µM (RIPK2; [3]): 93%

NC(=O)c1cccc2cn(-c3ccc([C@@H]4CCCNC4)cc3)nc12 [Niraparib]
percent of control binding at 10 µM (CSNK2A2; [4]): 1.2%
percent of control binding at 10 µM (ACVR2B; [4]): 100%
percent of control binding at 10 µM (CDK4; [4]): 100%
percent of control binding at 10 µM (KIT-autoinhibited; [4]): 85%
percent of control binding at 10 µM (MRCKA; [4]): 100%
percent of control binding at 10 µM [1, 4]: 100%
percent of control binding at 10 µM (MAP3K3; [4]): 100%
percent of control binding at 10 µM (PLK1; [4]): 100%
percent of control binding at 10 µM (GRK3; [4]): 95%
percent of control binding at 10 µM (PRKX; [4]): 96%
percent of control binding at 10 µM (RIPK2; [4]): 78%

CNCc1ccc(-c2[nH]c3cc(F)cc4c3c2CCNC4=O)cc1 [Rucaparib]
percent of control binding at 10 µM (CSNK2A2; [5]): 2%
percent of control binding at 10 µM (ACVR2B; [5]): 100%
percent of control binding at 10 µM (CDK4; [5]): 94%
percent of control binding at 10 µM (KIT-autoinhibited; [5]): 68%
percent of control binding at 10 µM (MRCKA; [5]): 97%
percent of control binding at 10 µM [1, 5]: 63%
percent of control binding at 10 µM (MAP3K3; [5]): 85%
percent of control binding at 10 µM (PLK1; [5]): 66%
percent of control binding at 10 µM (GRK3; [5]): 90%
percent of control binding at 10 µM (PRKX; [5]): 92%
percent of control binding at 10 µM (RIPK2; [5]): 88%
